Reference: patent publication US5047555A, “4-aminophenol derivatives and processes for preparing the same” (Tanabe Seiyaku Co., Ltd., priority 1988, dated 1991)

How the values were obtained:
5-lipoxygenase = molecular target: T1, 5-lipoxygenase (Rattus norvegicus, UniProt P12527); test: 5-Lipoxygenase inhibitory activity (5-HETE formation, enzyme solution from RBL-1 cells); assay type: biochemical; conditions: radiolabelled arachidonic acid substrate, indomethacin, calcium chloride, ATP; RBL-1 enzyme
T1 construct: An enzyme solution containing 5-lipoxygenase was prepared from cultured basophilic leukemia cell strain RBL-1 cells; endogenous in cells; host or cells: RBL-1 cells
T1 sequence (P12527 1-673): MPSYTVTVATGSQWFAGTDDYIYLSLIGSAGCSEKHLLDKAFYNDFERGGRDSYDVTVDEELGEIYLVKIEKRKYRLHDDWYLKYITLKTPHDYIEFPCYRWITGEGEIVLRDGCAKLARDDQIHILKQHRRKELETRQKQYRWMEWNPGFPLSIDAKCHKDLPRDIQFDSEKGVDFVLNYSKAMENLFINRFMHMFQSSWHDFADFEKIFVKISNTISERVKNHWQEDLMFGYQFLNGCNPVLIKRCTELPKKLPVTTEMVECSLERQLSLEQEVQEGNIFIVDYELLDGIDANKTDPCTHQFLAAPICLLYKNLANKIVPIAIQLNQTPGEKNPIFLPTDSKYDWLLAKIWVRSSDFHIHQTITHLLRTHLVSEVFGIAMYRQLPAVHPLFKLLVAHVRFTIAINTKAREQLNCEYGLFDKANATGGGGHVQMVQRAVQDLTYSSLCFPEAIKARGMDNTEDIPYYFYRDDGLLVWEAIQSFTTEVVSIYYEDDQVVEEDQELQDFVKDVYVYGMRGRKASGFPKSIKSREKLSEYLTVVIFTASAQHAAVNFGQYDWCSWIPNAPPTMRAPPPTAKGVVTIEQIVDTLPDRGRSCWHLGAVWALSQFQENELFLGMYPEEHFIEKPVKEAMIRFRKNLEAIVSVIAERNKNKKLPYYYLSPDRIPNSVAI
Protocol: An enzyme solution containing 5-lipoxygenase was prepared from cultured basophilic leukemia cell strain RBL-1 cells, and the reaction was carried out with radiolabelled arachidonic acid as the substrate in the presence of indomethacin, calcium chloride, adenosine triphosphate and the substance to be tested. A predetermined amount of the reaction mixture was spotted on a thin layer, separated by development, and then the radioactivity of the 5-HETE (5-hydroxyeicosatetraenic acid) fraction of the enzyme reaction product was measured to give the index of the 5-lipoxygenase activity. […] [Method of M. Furukawa et al. described in Biochimica et Biophysica acta, vol. 795, p. 458 (1984)]

Leukotriene B4 formation = Leukotriene B4 formation inhibitory activity (guinea pig neutrophil suspension); assay type: cell-based; conditions: Cavia porcellus, 10^-6 M, guinea pig neutrophils, calcium ionophore A23187 and arachidonic acid, HPLC
Protocol: Leukotriene B4 formation inhibitory activity
A neutrophil suspension, prepared by administration of casein intraperitoneally to guinea pig, was treated with the test compound and challenged with calcium ionophore A23187 and arachidonic acid. After solvent extraction, leukotriene B4 was assayed by high performance liquid chromatography. The leukotriene B4 formation inhibitory activity of the test compound is expressed as % inhibition at the sample concentration of 10^-6 M. [Method of Douglass et al. described in Prostaglandins vol. 31, p. 358 (1986)]

Leukotriene C4 formation = Leukotriene C4 formation inhibitory activity (sensitized guinea pig lung fragments); assay type: cell-based; conditions: Cavia porcellus; 10^-5 M; ovalbumin-sensitized guinea pig lung fragments, ovalbumin challenge in vitro, radioimmunoassay
Protocol: Leukotriene C4 formation inhibitory activity
Lung fragments of guinea pig sensitized with ovalbumin were treated with the test compound and challenged with ovalbumin in vitro. After solvent extraction, leukotriene C4 in the supernatant was determined by radioimmunoassay. The leukotriene C4 formation inhibitory activity of the test compound is expressed as % inhibition at the sample concentration of 10^-5 M.

[1] = stabilizer for polymers; cited from earlier work
lipoxygenase = conditions: cited from earlier work
[2] = test system: PCA (passive cutaneous anaphylaxis); conditions: cited from earlier work

| Compound | IC50 (5-lipoxygenase) [nM] | inhibition at 1 µM (Leukotriene B4 formation) [%] | also measured |
| --- | --- | --- | --- |
| COc1cccc(/C=C/C(=O)Nc2cc(C)c(O)c(C)c2)c1 [drawing 16] | 240 | – | – |
| CCCCCCCCC(=O)Nc1cc(C)c(O)c(C)c1 [both CH3, (CH2)7 CH3, 4-nonanoylamino-2,6-dimethylphenol] | 400 | 57.3 | – |
| CC(C)=CCC/C(C)=C\C(=O)Nc1cc(C)c(O)c(C)c1 | – | 95.3 | – |
| CC(C)c1cc(NC(=O)c2cccs2)cc(C(C)C)c1O [4-(2-thienylcarbonyl)-amino-2,6-diisopropylphenol] | 150 | – | inhibition at 10 µM (Leukotriene C4 formation): 79.9% |
| COc1cccc(CCC(=O)Nc2cc(C)c(O)c(C)c2)c1 | – | – | inhibition at 10 µM (Leukotriene C4 formation): 66.9% |
| Cc1cc(NC(=O)c2ccsc2)cc(C)c1O [drawing 7] | 810 | – | – |
| CCCCCCCCCCCC(=O)Nc1cc(CC)c(O)c(C(C)(C)C)c1 [4-(lauroylamino)-2-ethyl-6-tert-butylphenol] | – | – | antioxidant activity [1]: antioxidant activity |
| CC(C)=CCC/C(C)=C/CC/C(C)=C/C(=O)Nc1cc(C)c(O)c(C)c1 | – | 90.5 | – |
| COc1ccc(CC(C)C(=O)Nc2cc(C)c(O)c(C)c2)cc1 (stereo not shown) | – | – | inhibition at 10 µM (Leukotriene C4 formation): 58.9% |
| CC(C)=CCC/C(C)=C/C(=O)Nc1cc(C)c(O)c(C)c1 | – | 82.5 | – |
| CCCc1cc(F)c2oc(C(=O)OCC)c(C)c2c1O | – | – | lipoxygenase inhibitory activity (lipoxygenase): lipoxygenase inhibitory activity |
| COc1ccc(/C=C(\C)C(=O)Nc2cc(C)c(O)c(C)c2)cc1 [drawing 19] | 150 | – | – |
| COc1ccc(/C=C/C(=O)Nc2cc(C)c(O)c(C)c2)cc1 [drawing 43] | – | 65.6 | – |
| Cc1cc(NC(=O)CCc2cccs2)cc(C)c1O [drawing 28] | – | – | inhibition at 10 µM (Leukotriene C4 formation): 45.8% |
| COc1ccc(/C=C(\C)C(=O)Nc2cc(C(C)(C)C)c(O)c(C(C)(C)C)c2)cc1 | – | – | inhibition at 10 µM (Leukotriene C4 formation): 58.3% |
| Cc1ccc(C(=O)Nc2cc(C)c(O)c(C)c2)s1 [drawing 8] | 270 | – | – |
| Cc1cc(NC(=O)/C=C/c2cccs2)cc(C)c1O [drawing 30] | – | – | inhibition at 10 µM (Leukotriene C4 formation): 65% |
| CCCCCCCC(=O)Nc1cc(C)c(O)c(C)c1 [both CH3, (CH2)6 CH3] | 330 | 59.7 | – |
| CC(=O)Oc1ccc(CCC(=O)Nc2cc(C)c(O)c(C)c2)cc1OC(C)=O [drawing 20] | 200 | – | – |
| Cc1cnc(Nc2ccc(O)c(C(C)(C)C)c2C(C)(C)C)s1 [4-[2-(5-methyl)thiazolylamino]-2,3-di-tert-butylphenol] | – | – | lipoxygenase inhibitory activity (lipoxygenase): lipoxygenase inhibitory activity |
| Cc1cc(NC(=O)/C=C/c2cccn2C)cc(C)c1O | 440 | – | – |
| CC(=O)Oc1ccc(CCC(=O)Nc2cc(C)c(O)c(C)c2)cc1OC(C)=O [drawing 45] | – | 81.9 | – |
| Cc1cc(NC(=O)/C=C/c2cccs2)cc(C)c1O [drawing 11] | 200 | – | – |

| Compound | IC50 (5-lipoxygenase) [nM] | inhibition at 1 µM (Leukotriene B4 formation) [%] | also measured |
| --- | --- | --- | --- |
| CCCCCCC(=O)Nc1cc(C)c(O)c(C)c1 [both CH3, (CH2)5 CH3] | 300 | 53.1 | – |
| Cc1ccc(C(=O)Nc2cc(C)c(O)c(C)c2)s1 [drawing 27] | – | – | inhibition at 10 µM (Leukotriene C4 formation): 59% |
| COc1ccc(/C=C(\C)C(=O)Nc2cc(C(C)C)c(O)c(C(C)C)c2)cc1 [drawing 47] | – | 88.8 | – |
| CC(=O)Oc1ccc(/C=C/C(=O)Nc2cc(C)c(O)c(C)c2)cc1OC(C)=O | – | 82 | – |
| CCCCCCCC(=O)Nc1cc(CC)c(O)c(CC)c1 [both C2 H5, (CH2)6 CH3] | – | 85.6 | – |
| COc1ccc(/C=C(\C)C(=O)Nc2cc(C(C)C)c(O)c(C(C)C)c2)cc1 [drawing 22] | 150 | – | – |
| CCCc1cc(F)c2oc(C(=O)OCc3ccccc3)c(C)c2c1O | – | – | lipoxygenase inhibitory activity (lipoxygenase): lipoxygenase inhibitory activity |
| CCCCCCCC(=O)Nc1cc(C(C)C)c(O)c(C(C)C)c1 [both CH(CH3)2, (CH2)6 CH3] | – | 69.5 | – |
| COc1cccc(/C=C/C(=O)Nc2cc(C)c(O)c(C)c2)c1 [drawing 35] | – | – | inhibition at 10 µM (Leukotriene C4 formation): 46% |
| CC(C)=CCC/C(C)=C/CC/C(C)=C\C(=O)Nc1cc(C)c(O)c(C)c1 | – | 98.5 | – |
| COc1cc(C(=O)Nc2cc(Cl)c(O)c(Cl)c2)cc(OC)c1OC [2,6-dichloro-4-(3,4,5-trimethoxybenzoyl)aminophenol] | – | – | immune control activity or PCA inhibitory activity [2]: immune control activity or PCA (passive cutaneous anaphylaxis) inhibitory activity |
| CC=CC=CC(=O)Nc1cc(C)c(O)c(C)c1 | 400 | – | – |
| COc1ccc(/C=C/C(=O)Nc2cc(C)c(O)c(C)c2)cc1 [drawing 17] | 220 | – | – |
| Cc1cc(NC(=O)c2cccs2)cc(C)c1O | – | – | inhibition at 10 µM (Leukotriene C4 formation): 76.6% |
| COc1ccc(CCC(=O)Nc2cc(C)c(O)c(C)c2)cc1 [drawing 33] | – | – | inhibition at 10 µM (Leukotriene C4 formation): 49.3% |
| CCCCCCCCCCCCCCCCCC(=O)Nc1cc(C(C)(C)C)c(O)c(C(C)(C)C)c1 [4-(stearoylamino)-2,6-di-tert-butylphenol] | – | – | antioxidant activity [1]: antioxidant activity |
| COc1ccc(/C=C(\C)C(=O)Nc2cc(C)c(O)c(C)c2)cc1 [drawing 37] | – | – | inhibition at 10 µM (Leukotriene C4 formation): 58.1% |
| Cc1cc(NC(=O)c2cc3ccccc3s2)cc(C)c1O | 210 | – | – |
| COc1cccc(/C=C/C(=O)Nc2cc(C)c(O)c(C)c2)c1 [drawing 42] | – | 62.6 | – |
| COc1ccc(CCC(=O)Nc2cc(C)c(O)c(C)c2)cc1 [drawing 21] | 250 | – | – |
| Cc1cc(NC(=O)CCc2cccs2)cc(C)c1O [drawing 13] | 760 | – | – |
| Cc1cc(NC(=O)c2ccsc2)cc(C)c1O [drawing 25] | – | – | inhibition at 10 µM (Leukotriene C4 formation): 62.9% |
